Tests used:
[1] = biological target: T1, human recombinant histamine H2 receptor (Homo sapiens, UniProt P25021); assay: Histamine H2 radioligand binding ([125I]Aminopotentidine); details: compound at 1 μM; inhibition of specific [125I]Aminopotentidine binding; read-out: Histamine Binding (1 μM) H2, Percentage Inhibition
T1 construct: expressed in transfected cells; host or cells: CHO-K1 cells
Outline: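 CHO-K1 membranes expressing the receptor were incubated in 50 mM phosphate buffer, pH 7.4, with 0.1 nM [125I]aminopotentidine for 120 min at 25°C; 3 μM tiotidine defined non-specific binding.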

[2] = biological target: T2, human recombinant serotonin (5-Hydroxytryptamine) 5-HT2C receptor (Homo sapiens, UniProt P28335); assay: Serotonin 5-HT2C radioligand binding ([3H]Mesulergine); details: read-out: Serotonin 5-HT2C, inhibition of ligand binding (1 μM)
T2 construct: expressed in transfected cells; host or cells: CHO-K1 cells
T2 sequence (P28335 33-458): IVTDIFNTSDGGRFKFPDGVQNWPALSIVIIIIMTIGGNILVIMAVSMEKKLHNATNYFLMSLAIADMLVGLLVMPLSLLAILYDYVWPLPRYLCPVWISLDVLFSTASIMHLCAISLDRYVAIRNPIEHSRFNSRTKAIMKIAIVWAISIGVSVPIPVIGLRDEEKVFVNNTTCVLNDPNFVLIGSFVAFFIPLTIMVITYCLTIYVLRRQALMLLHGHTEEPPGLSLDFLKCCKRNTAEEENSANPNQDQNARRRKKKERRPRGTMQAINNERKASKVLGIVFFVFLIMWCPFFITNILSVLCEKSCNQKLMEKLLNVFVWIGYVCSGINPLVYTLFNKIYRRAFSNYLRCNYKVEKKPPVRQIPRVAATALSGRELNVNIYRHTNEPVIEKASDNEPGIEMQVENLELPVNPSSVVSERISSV
Outline: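 Membranes from CHO-K1 cells expressing the human receptor were incubated 60 min at 25 °C with 1 nM [3H]mesulergine in 50 mM Tris-HCl pH 7.4 with ascorbic acid and 10 μM pargyline. Compounds were tested at 1 μM or lower in 1% DMSO, with 1 μM mianserin defining non-specific binding. After filtration, values are % inhibition of specific binding.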

[3] = biological target: T3, human recombinant serotonin (5-Hydroxytryptamine) 5-HT6 receptor (Homo sapiens, UniProt P50406); assay: Serotonin 5-HT6 radioligand binding ([3H]LSD); details: read-out: Serotonin 5-HT6, inhibition of ligand binding (1 μM)
T3 construct: expressed in transfected cells; host or cells: human HeLa cells
Outline: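 Membranes of HeLa cells expressing human 5-HT6 were incubated with 1.5 nM [3H]LSD in Tris-HCl buffer pH 7.4 for 120 min at 37° C, with non-specific binding defined by 5 μM 5-HT.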

[4] = biological target: T4, human recombinant histamine H1 receptor (Homo sapiens, UniProt P35367); assay: Histamine H1 radioligand binding ([3H]Pyrilamine); details: compound at 1 μM; inhibition of specific [3H]Pyrilamine binding; read-out: Histamine Binding (1 μM) H1, Percentage Inhibition
T4 construct: expressed in transfected cells; host or cells: CHO cells
Outline: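 Membranes from CHO cells expressing human H1 receptor were incubated with 1.2 nM [3H]pyrilamine for 180 min at 25° C in Tris-HCl buffer pH 7.4. Non-specific binding defined with 1 μM pyrilamine; compounds tested at 1 μM or lower in 1% DMSO. Results are given as % inhibition of specific binding.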

T3 sequence (P50406 whole entry): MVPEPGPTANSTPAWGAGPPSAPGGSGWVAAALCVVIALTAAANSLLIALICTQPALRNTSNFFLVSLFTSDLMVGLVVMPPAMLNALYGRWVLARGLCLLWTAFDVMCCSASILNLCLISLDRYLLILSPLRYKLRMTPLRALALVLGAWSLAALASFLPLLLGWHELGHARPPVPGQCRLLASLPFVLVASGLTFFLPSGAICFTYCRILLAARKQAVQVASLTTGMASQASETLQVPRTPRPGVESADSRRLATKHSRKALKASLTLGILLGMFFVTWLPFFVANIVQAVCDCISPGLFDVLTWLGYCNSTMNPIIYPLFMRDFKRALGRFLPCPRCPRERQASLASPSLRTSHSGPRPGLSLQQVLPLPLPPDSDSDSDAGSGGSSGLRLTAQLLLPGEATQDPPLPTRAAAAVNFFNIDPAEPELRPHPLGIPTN
T4 sequence (P35367 whole entry): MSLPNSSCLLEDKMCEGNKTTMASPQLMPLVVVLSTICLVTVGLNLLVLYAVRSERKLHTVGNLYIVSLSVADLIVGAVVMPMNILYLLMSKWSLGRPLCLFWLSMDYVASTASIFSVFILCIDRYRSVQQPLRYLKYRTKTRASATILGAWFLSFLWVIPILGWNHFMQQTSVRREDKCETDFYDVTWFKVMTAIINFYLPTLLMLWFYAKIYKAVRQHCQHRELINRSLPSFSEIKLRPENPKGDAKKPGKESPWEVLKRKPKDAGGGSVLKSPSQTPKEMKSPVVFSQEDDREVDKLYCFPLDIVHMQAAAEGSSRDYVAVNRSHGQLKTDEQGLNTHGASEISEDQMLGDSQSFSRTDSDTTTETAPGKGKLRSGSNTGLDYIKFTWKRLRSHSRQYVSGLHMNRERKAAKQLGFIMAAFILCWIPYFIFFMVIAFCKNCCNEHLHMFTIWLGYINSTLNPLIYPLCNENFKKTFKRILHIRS
T1 sequence (P25021 whole entry): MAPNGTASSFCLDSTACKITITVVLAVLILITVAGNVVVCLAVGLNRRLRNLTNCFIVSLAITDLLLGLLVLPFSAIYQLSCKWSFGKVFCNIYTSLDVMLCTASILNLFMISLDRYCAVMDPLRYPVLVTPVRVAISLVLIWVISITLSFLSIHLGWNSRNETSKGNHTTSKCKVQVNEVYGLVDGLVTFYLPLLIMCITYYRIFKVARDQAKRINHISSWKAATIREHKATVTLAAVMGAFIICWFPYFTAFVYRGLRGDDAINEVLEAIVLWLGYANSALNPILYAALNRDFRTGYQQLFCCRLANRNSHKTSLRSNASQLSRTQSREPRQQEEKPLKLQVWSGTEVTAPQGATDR

Compound | inhibition at 1 µM [1] [%] | inhibition at 1 µM [2] [%] | inhibition at 1 µM [3] [%] | inhibition at 1 µM [4] [%]
C/C(=C/n1c2c(c3ccccc31)[C@@H]1CC[C@H](C2)N1C)c1ccc(F)cc1 [Compound 121] | 21 | 88 | 65 | 17
C/C(=C\n1c2c(c3cc(Cl)ccc31)C1CCC(C2)N1C)c1ccc(F)cc1 (stereo not shown) [Compound 123] | 93 | 95 | 98 | 62
C/C(=C\n1c2c(c3cc(C)ccc31)C1CCC(C2)N1C)c1ccc(F)cc1 (stereo not shown) [Compound 124] | 79 | 86 | 85 | 31
C/C(=C\n1c2c(c3cc(Cl)ccc31)C1CCC(C2)N1C)c1ccc(Cl)cc1 (stereo not shown) [Compound 125] | 96 | 99 | 33 | 82
COc1ccc(/C(C)=C/n2c3c(c4cc(Cl)ccc42)C2CCC(C3)N2C)cc1F (stereo not shown) [Compound 136] | 100 | 100 | 31 | 69
CN1C2CCC1c1c(n(C#Cc3ccc(F)cc3)c3ccc(Cl)cc13)C2 (stereo not shown) [Compound 138] | 70 | 97 | 45 | 57
Cc1ccc(C#Cn2c3c(c4cc(Cl)ccc42)C2CCC(C3)N2C)cn1 (stereo not shown) [Compound 139] | 34 | 93 | 26 | 57
Cc1ccc2c(c1)c1c(n2C#Cc2ccc(F)cc2)CC2CCC1N2C (stereo not shown) [Compound 141] | 25 | 89 | 21 | 2
CN1C2CCC1c1c(n(C#Cc3ccc(Cl)cc3)c3ccc(Cl)cc13)C2 (stereo not shown) [Compound 142] | 71 | 100 | 36 | 34
COc1ccc(C(C)(O)Cn2c3c(c4cc(Cl)ccc42)C2CCC(C3)N2C)cc1F (stereo not shown) [Compound 160] | 22 | 93 | 29 | 86
COc1ccc(C(C)(O)Cn2c3c(c4cc(C)ccc42)C2CCC(C3)N2C)cc1F (stereo not shown) [Compound 161] | 20 | 92 | 25 | 84
Cc1ccc2c(c1)c1c(n2C(=O)Cc2ccc(Cl)cc2)CC2CCC1N2C (stereo not shown) [Compound 162] | 47 | 93 | 23 | 0
C/C(=C\n1c2c(c3cc(C)ccc31)C1CCC(C2)N1C)c1ccc(Cl)cc1Cl (stereo not shown) [Compound 163] | 66 | 94 | 36 | 72
